# Source: patent US20240287525A1, “COMPOSITIONS AND METHODS FOR TREATING CANCER” (OSLO UNIVERSITETSSYKEHUS HF, priority 2021, published 2024)
# Test system: MTHFD2
# Experiment: MTHFD2 knockdown efficiency by qPCR and Western analyses after siRNA transfection
# Type: cell-based
# Conditions: LNCaP cells, mRNA by qRT-PCR
# Method: FIG. 1: MTHFD2 knockdown inhibits growth of PCa cells, PDX-derived organoids, and tumor xenografts. A. MTHFD2 knockdown efficiency was determined in LNCaP and DU145 cells that were transfected with either scrambled siRNA or two independent MTHFD2-specific siRNAs for 48 hours by both qPCR and Western analyses. B. LNCaP, VCaP, or 22Rv1 cells transfected with control or MTHFD2-specific siRNAs were cultured for the indicated times, and cell numbers were determined by trypan blue staining. *p<0.01. MTHFD2 knockdown hinders colony (C-D) and prostatosphere (E) formation ability of PCa cells. F. Viability of normal prostate cells is not affected by MTHFD2 knockdown. G. MTHFD2 expression and knockdown efficiency in various LuCaP organoids were assessed by Western analysis.
# FIG. 4: A. LNCaP cells were transfected with MTHFD2 (siMTHFD2 #1) or non-targeting control siRNAs. Cells were cultured for the indicated time points, collected, and MTHFD2 mRNA levels were determined by qRT-PCR. […] B. LNCaP and DU145 cells were reverse transfected with either control siRNA or two independent siRNAs against MTHFD2. After 48 hours, relative cell viability was determined using the CCK8 assay. C. Bar graph showing quantification of PDX derived organoids representing the number of organoids per field in FIG. 1H.
# Briefly, cells were reverse transfected using Lipofectamine RNAiMAX transfection reagent (ThermoFisher) and plated into 96-well or 6-well plates. Cells in 6-well plates were cultured for the indicated times, trypsinized, stained with trypan blue, and counted using a hemocytometer. […] Cells plated into the 96-well plates were cultured for 48 hrs and cell viability was measured using the CCK-8 kit (Bimake, Munich, Germany).
# RNA extraction, reverse transcription and quantitative polymerase chain reaction (qPCR) were performed as described previously (Sheng X, Arnoldussen Y J, Storm M. Tesikova M, Nenseth H Z, Zhao S, et al. Divergent androgen regulation of unfolded protein response pathways drives prostate cancer. EMBO Mol Med 2015; 7:788-801). […]
substance,measurement,setting,value
siMTHFD2-2: MTHFD2-specific siRNA CAGGCCAGCTCAAGAAGCAAA; location 1140; positive control in Example 3 (chain 2 CAGGCCAGCUCAAGAAGCAAA; chemistry not given here; one strand in two spellings),"MTHFD2 knockdown, maximal",72 hours post-transfection,~80%
same,return of MTHFD2 to basal levels,time course after transfection,≤ 12 days
same,time MTHFD2 remained significantly downregulated,time course after transfection,more than one week
